target: MAPK14 (human) (UniProt Q16539); test: Inhibition of MAPK14 Kinase Activity
Sequence (Q16539 whole entry, looked up): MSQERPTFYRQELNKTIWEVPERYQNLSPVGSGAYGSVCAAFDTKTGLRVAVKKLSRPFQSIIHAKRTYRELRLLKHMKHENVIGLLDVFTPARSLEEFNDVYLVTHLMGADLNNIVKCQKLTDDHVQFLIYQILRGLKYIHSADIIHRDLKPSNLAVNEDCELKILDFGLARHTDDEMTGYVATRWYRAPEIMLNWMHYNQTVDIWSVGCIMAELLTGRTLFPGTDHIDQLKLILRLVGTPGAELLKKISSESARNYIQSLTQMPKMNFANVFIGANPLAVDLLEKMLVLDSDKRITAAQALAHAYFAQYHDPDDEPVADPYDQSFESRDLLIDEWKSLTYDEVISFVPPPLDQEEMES

| SMILES | IC50 |
| --- | --- |
| Cc1nc(-c2ccc(F)cc2)c(-c2nc(C(=O)Nc3cccc(Cl)c3C)cs2)s1 | ≤ 1 µM |
| Cc1onc(-c2ccccc2)c1-c1ccn(C(=O)NC(C)C)n1 | ≤ 1 µM |
| CC(C)NC(=O)c1csc(-c2oc(CNC(=O)c3ccccc3C(=O)c3ccc(O)cc3)nc2-c2ccc(F)cc2)n1 | ≤ 1 µM |
| Cc1nc(-c2ccc(F)cc2)c(-c2nc(C(=O)NC3CCCCC3)cs2)s1 | ≤ 1 µM |
| Cc1nc(-c2ccc(F)cc2)c(-c2nc(C(=O)NCc3cccc(C(F)(F)F)c3)cs2)s1 | ≤ 1 µM |
| Cc1nc(-c2ccc(F)cc2)c(-c2nc(C(=O)N[C@H](C)c3ccccc3)cs2)s1 | ≤ 1 µM |
| CC(C)NC(=O)c1csc(-c2oc(CN3CCN(C(=O)c4ccccc4-c4ccccc4)CC3)nc2-c2ccc(F)cc2)n1 | ≤ 1 µM |
| CC(C)NC(=O)c1csc(-c2oc(CNC(=O)C=Cc3ccccc3)nc2-c2ccc(F)cc2)n1 | ≤ 1 µM |
| CC(C)NC(=O)c1csc(-c2c(-c3ccc(F)cc3)noc2C2CCNCC2)n1 | ≤ 1 µM |
| CC(C)NC(=O)c1csc(-c2c(-c3ccc(F)cc3)n[nH]c2C2CCN(C(=O)c3cc(Cl)ccn3)CC2)n1 | ≤ 1 µM |
| Cc1nc(-c2ccc(F)cc2)c(-c2nc(C(=O)NCc3ccccc3C)cs2)s1 | ≤ 1 µM |
| Cc1cccc([N+](=O)[O-])c1C(=O)N1CCN(Cc2nc(-c3ccc(F)cc3)c(-c3nc(C(=O)NC(C)C)cs3)o2)CC1 | ≤ 1 µM |
| CC(C)NC(=O)c1csc(-c2oc(CNC(=O)C(Cc3ccccc3)NC(=O)OC(C)(C)C)nc2-c2ccc(F)cc2)n1 (stereo not given) | ≤ 1 µM |
| CCC(CO)NC(=O)c1csc(-c2c(-c3ccc(F)cc3)n[nH]c2C2CCNCC2)n1 (stereo not given) | ≤ 1 µM |
| Cc1nc(-c2ccc(F)cc2)c(-c2nc(C(=O)NCCc3ccccc3Cl)cs2)s1 | ≤ 1 µM |
| CC(C)NC(=O)c1csc(-c2oc(CNC(=O)c3ccc(Cl)cc3Cl)nc2-c2ccc(F)cc2)n1 | ≤ 1 µM |
| CC(C)NC(=O)c1csc(-c2oc(CN3CCN(C(=O)c4ccc5ncccc5c4)CC3)nc2-c2ccc(F)cc2)n1 | ≤ 1 µM |
| CNC(=O)c1csc(-c2sc(C)nc2-c2ccc(F)cc2)n1 | ≤ 1 µM |

| SMILES | IC50 |
| --- | --- |
| Cc1onc(-c2ccc(F)c(Cl)c2)c1-c1ccn(C(=O)NC(C)C)n1 | ≤ 1 µM |
| CCNC(=O)c1csc(-c2c(-c3ccc(F)cc3)n[nH]c2C2CCNCC2)n1 | ≤ 1 µM |
| CC(C)NC(=O)c1csc(-c2oc(CNC(=O)c3ccc(Cl)nc3)nc2-c2ccc(F)cc2)n1 | ≤ 1 µM |
| CC(C)NC(=O)c1csc(-c2oc(CNCCc3ccc(S(N)(=O)=O)cc3)nc2-c2ccc(F)cc2)n1 | ≤ 1 µM |
| Cc1nc(-c2ccc(F)cc2)c(-c2nc(C(=O)NC(C)C)cs2)s1 | ≤ 1 µM |
| Cc1nc(-c2ccc(F)cc2)c(-c2nc(C(=O)N[C@H](CO)Cc3ccccc3)cs2)s1 | ≤ 1 µM |
| CC(C)NC(=O)c1csc(-c2c(-c3ccc(F)cc3)n[nH]c2C2CCN(C(=O)CO)CC2)n1 | ≤ 1 µM |
| CC(C)NC(=O)c1csc(-c2oc(CN3CCN(C(=O)c4cnc(O)c(Cl)c4)CC3)nc2-c2ccc(F)cc2)n1 | ≤ 1 µM |
| CC(C)NC(=O)c1csc(-c2oc(CNC(=O)C(O)CCl)nc2-c2ccc(F)cc2)n1 (stereo not given) | ≤ 1 µM |
| CC(C)NC(=O)c1csc(-c2oc(CNC(=O)c3cc(O)ccc3O)nc2-c2ccc(F)cc2)n1 | ≤ 1 µM |
| CC(C)NC(=O)c1csc(-c2oc(CNC(=O)c3cc(O)ccc3[N+](=O)[O-])nc2-c2ccc(F)cc2)n1 | ≤ 1 µM |
| COc1ccc(CNC(=O)c2csc(-c3c(-c4ccc(F)cc4)n[nH]c3C3CCNCC3)n2)cc1 | ≤ 1 µM |
| Cc1ccc([N+](=O)[O-])c(C(=O)NCc2onc(-c3ccc(F)cc3)c2-c2nc(C(=O)NC(C)C)cs2)c1 | ≤ 1 µM |
| CC(C)NC(=O)c1csc(-c2oc(CN3CCN(C(=O)c4cc(F)c(F)cc4[N+](=O)[O-])CC3)nc2-c2ccc(F)cc2)n1 | ≤ 1 µM |
| CC(=O)Oc1cccc(C(=O)N2CCN(Cc3nc(-c4ccc(F)cc4)c(-c4nc(C(=O)NC(C)C)cs4)o3)CC2)c1 | ≤ 1 µM |
| CC(C)NC(=O)c1csc(-c2oc(CNC(=O)c3ncc[nH]3)nc2-c2ccc(F)cc2)n1 | ≤ 1 µM |
| Cc1onc(-c2ccc(Cl)cc2)c1-c1ccn(C(=O)NC(C)CO)n1 (stereo not given) | ≤ 1 µM |

Source: the Kinase Knowledgebase extract (Sharma et al. 2016)
